Laboratory results: patent US11192877B2, “3-(5-hydroxy-1-oxoisoindolin-2-yl)piperidine-2,6-dione derivatives and uses thereof” (Novartis AG, priority 2018, dated 2021)
Where two headings read alike, the source gives them in different places.

Target: IKZF2 (Helios) (Homo sapiens, UniProt Q96SW2+Q9UKS7)
Experiment: Prolabel quantification of IKZF2 protein levels in 293GT cells
Format: cell-based
Details: 24 h, read-out: IKZF2 % protein reduction at 10 μM, 24 h
[1] = Pro-label assay, 293GT cells, 10 μM

IKZF2 (Helios), sequence (Q9UKS7 whole entry): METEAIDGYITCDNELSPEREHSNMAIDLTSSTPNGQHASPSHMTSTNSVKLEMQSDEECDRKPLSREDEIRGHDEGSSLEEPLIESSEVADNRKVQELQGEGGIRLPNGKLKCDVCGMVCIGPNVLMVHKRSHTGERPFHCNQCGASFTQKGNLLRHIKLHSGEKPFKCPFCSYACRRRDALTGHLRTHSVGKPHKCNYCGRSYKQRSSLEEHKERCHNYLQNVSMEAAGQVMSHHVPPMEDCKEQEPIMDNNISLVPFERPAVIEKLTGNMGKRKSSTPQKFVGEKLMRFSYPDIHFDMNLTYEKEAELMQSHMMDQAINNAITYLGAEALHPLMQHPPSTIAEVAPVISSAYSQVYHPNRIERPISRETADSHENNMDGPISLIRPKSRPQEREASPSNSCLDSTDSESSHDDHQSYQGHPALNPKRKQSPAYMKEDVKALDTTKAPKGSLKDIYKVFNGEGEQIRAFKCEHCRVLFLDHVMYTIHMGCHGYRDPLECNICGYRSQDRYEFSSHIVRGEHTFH
IKZF2 (Helios), sequence (Q96SW2 whole entry): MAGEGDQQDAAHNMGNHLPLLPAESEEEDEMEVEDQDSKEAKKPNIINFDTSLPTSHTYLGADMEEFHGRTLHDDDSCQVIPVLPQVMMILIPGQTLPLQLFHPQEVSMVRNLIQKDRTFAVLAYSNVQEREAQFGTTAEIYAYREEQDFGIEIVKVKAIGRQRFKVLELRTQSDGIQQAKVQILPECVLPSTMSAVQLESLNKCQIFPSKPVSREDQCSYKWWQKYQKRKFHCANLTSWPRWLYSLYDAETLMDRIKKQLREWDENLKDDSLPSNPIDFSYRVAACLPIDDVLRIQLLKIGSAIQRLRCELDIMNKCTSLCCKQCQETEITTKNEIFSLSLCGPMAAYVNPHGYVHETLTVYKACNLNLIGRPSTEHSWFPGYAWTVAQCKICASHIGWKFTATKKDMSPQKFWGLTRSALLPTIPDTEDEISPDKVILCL
IKZF2 (Helios), sequence (Q16531 whole entry partner): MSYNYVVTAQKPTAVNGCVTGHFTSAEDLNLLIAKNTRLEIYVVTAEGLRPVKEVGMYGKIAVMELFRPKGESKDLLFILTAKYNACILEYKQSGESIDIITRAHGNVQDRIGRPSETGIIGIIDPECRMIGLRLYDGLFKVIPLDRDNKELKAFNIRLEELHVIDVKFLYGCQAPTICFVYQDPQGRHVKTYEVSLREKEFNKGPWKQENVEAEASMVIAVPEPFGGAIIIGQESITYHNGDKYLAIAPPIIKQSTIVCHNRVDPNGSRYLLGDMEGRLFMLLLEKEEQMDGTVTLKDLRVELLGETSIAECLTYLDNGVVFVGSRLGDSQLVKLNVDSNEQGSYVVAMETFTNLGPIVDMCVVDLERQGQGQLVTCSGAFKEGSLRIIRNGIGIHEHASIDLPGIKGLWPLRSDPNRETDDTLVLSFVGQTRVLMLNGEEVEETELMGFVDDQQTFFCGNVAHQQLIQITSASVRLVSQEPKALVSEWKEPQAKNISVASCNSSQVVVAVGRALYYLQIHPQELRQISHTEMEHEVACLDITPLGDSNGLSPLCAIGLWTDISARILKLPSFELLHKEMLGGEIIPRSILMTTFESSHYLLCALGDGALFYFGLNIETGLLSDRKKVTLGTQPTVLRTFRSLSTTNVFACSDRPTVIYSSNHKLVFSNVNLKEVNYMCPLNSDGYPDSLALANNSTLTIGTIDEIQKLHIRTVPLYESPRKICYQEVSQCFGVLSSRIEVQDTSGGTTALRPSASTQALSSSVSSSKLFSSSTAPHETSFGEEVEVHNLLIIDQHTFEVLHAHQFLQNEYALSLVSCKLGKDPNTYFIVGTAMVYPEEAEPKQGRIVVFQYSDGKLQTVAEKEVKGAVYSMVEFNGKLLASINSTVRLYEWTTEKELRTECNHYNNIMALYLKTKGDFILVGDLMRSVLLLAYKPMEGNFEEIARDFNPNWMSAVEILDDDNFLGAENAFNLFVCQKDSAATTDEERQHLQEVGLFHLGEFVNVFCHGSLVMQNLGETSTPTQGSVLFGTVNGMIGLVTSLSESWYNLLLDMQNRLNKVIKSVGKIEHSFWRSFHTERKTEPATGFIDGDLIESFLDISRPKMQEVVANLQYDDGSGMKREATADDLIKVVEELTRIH

| IKZF2 % protein reduction at 10 µM [1] | SMILES | IKZF2 % protein reduction at 10 µM |
| --- | --- | --- |
| 39% | O=C1CCC(N2Cc3cc(O[C@H]4CCC[C@@H]4N4CCc5ncccc5C4)ccc3C2=O)C(=O)N1 (stereo partly drawn) [I-190, 3-(5-(((1S,2S)-2-(7,8-dihydro-1,6-naphthyridin-6(5H)-yl)cyclopentyl)oxy)-1-oxoisoindolin-2-yl)piperidine-2,6-dione] |  |
| 83% | CO[C@H]1CC[C@@H](CN[C@H]2CCC[C@@H]2Oc2ccc3c(c2)CN(C2CCC(=O)NC2=O)C3=O)CC1 (stereo partly drawn) [I-191, 3-(5-(((1S,2S)-2-((((1s,4R)-4-methoxycyclohexyl)methyl)amino)cyclopentyl)oxy)-1-oxoisoindolin-2-yl)piperidine-2,6-dione] |  |
| 83% | O=C1CCC(N2Cc3cc(O[C@H]4CCC[C@@H]4NCC4CC(F)(F)C4)ccc3C2=O)C(=O)N1 (stereo partly drawn) [I-194, 3-(5-(((1S,2S)-2-(((3,3-difluorocyclobutyl)methyl)amino)cyclopentyl)oxy)-1-oxoisoindolin-2-yl)piperidine-2,6-dione] |  |
| 68% | O=C1CCC(N2Cc3cc(O[C@H]4CCC[C@@H]4N4Cc5ccncc5C4)ccc3C2=O)C(=O)N1 (stereo partly drawn) [I-196, 3-(5-(((1S,2S)-2-(1,3-dihydro-2H-pyrrolo[3,4-c]pyridin-2-yl)cyclopentyl)oxy)-1-oxoisoindolin-2-yl)piperidine-2,6-dione] |  |
| 46% | CN(C)[C@H]1c2ccccc2C[C@@H]1Oc1ccc2c(c1)CN(C1CCC(=O)NC1=O)C2=O (stereo partly drawn) [I-201, 3-(5-(((1S,2S)-1-(dimethylamino)-2,3-dihydro-1H-inden-2-yl)oxy)-1-oxoisoindolin-2-yl)piperidine-2,6-dione] |  |
| 20% | N[C@H]1CCC[C@@H]1Oc1ccc2c(c1F)CN(C1CCC(=O)NC1=O)C2=O (stereo partly drawn) [I-213, 3-(5-(((1S,2S)-2-aminocyclopentyl)oxy)-4-fluoro-1-oxoisoindolin-2-yl)piperidine-2,6-dione] |  |

Second part, the compound before the results:

| SMILES | IKZF2 % protein reduction at 10 µM [1] | IKZF2 % protein reduction at 10 µM |
| --- | --- | --- |
| CC(C)OC1CCN([C@H]2CCC[C@@H]2Oc2ccc3c(c2)CN(C2CCC(=O)NC2=O)C3=O)CC1 (stereo partly drawn) [I-187, 3-(5-(((1S,2S)-2-(4-isopropoxypiperidin-1-yl)cyclopentyl)oxy)-1-oxoisoindolin-2-yl)piperidine-2,6-dione] |  | 79% |
| O=C1CCC(N2Cc3cc(O[C@H]4CCC[C@@H]4N4C[C@@H]5[C@H](C4)[C@H]4CC[C@@H]5O4)ccc3C2=O)C(=O)N1 (stereo partly drawn) [I-188, 3-(5-(((1S,2S)-2-((3aR,4R,7S,7aS)-octahydro-2H-4,7-epoxyisoindol-2-yl)cyclopentyl)oxy)-1-oxoisoindolin-2-yl)piperidine-2,6-dione] |  | 70% |
| CCOC1CCN([C@H]2CCC[C@@H]2Oc2ccc3c(c2)CN(C2CCC(=O)NC2=O)C3=O)CC1 (stereo partly drawn) [I-189, 3-(5-(((1S,2S)-2-(4-ethoxypiperidin-1-yl)cyclopentyl)oxy)-1-oxoisoindolin-2-yl)piperidine-2,6-dione] |  | 70% |
| O=C1CCC(N2Cc3cc(O[C@H]4CCC[C@@H]4N4CCC(OC(F)F)CC4)ccc3C2=O)C(=O)N1 (stereo partly drawn) [I-195, 3-(5-(((1S,2S)-2-(4-(difluoromethoxy)piperidin-1-yl)cyclopentyl)oxy)-1-oxoisoindolin-2-yl)piperidine-2,6-dione] |  | 85% |
| N[C@H]1c2ccccc2C[C@@H]1Oc1ccc2c(c1)CN(C1CCC(=O)NC1=O)C2=O (stereo partly drawn) [I-197, 3-(5-(((1S,2S)-1-amino-2,3-dihydro-1H-inden-2-yl)oxy)-1-oxoisoindolin-2-yl)piperidine-2,6-dione] |  | 68% |
| CCN[C@H]1c2ccccc2C[C@@H]1Oc1ccc2c(c1)CN(C1CCC(=O)NC1=O)C2=O (stereo partly drawn) [I-198, 3-(5-(((1S,2S)-1-(ethylamino)-2,3-dihydro-1H-inden-2-yl)oxy)-1-oxoisoindolin-2-yl)piperidine-2,6-dione] |  | 67% |
| CCN(CC)[C@H]1c2ccccc2C[C@@H]1Oc1ccc2c(c1)CN(C1CCC(=O)NC1=O)C2=O (stereo partly drawn) [I-199, 3-(5-(((1S,2S)-1-(diethylamino)-2,3-dihydro-1H-inden-2-yl)oxy)-1-oxoisoindolin-2-yl)piperidine-2,6-dione] |  | 71% |
| CCN(C)[C@H]1c2ccccc2C[C@@H]1Oc1ccc2c(c1)CN(C1CCC(=O)NC1=O)C2=O (stereo partly drawn) [I-200, 3-(5-(((1S,2S)-1-(ethyl(methyl)amino)-2,3-dihydro-1H-inden-2-yl)oxy)-1-oxoisoindolin-2-yl)piperidine-2,6-dione] | 71% |  |
| CCN(CC)[C@H]1CCC[C@@H]1Oc1ccc2c(c1F)CN(C1CCC(=O)NC1=O)C2=O (stereo partly drawn) [I-214, 3-(5-(((1S,2S)-2-(diethylamino)cyclopentyl)oxy)-4-fluoro-1-oxoisoindolin-2-yl)piperidine-2,6-dione] | 40% |  |
| N[C@H]1CCC[C@@H]1Oc1cc2c(cc1F)C(=O)N(C1CCC(=O)NC1=O)C2 (stereo partly drawn) [I-215, 3-(5-(((1S,2S)-2-aminocyclopentyl)oxy)-6-fluoro-1-oxoisoindolin-2-yl)piperidine-2,6-dione] | 30% |  |
| CCN(CC)[C@H]1CCC[C@@H]1Oc1cc2c(cc1F)C(=O)N(C1CCC(=O)NC1=O)C2 (stereo partly drawn) [I-216, 3-(5-(((1S,2S)-2-(diethylamino)cyclopentyl)oxy)-6-fluoro-1-oxoisoindolin-2-yl)piperidine-2,6-dione] | 60% |  |
